The values that follow come from patent US20200261450A1, “6,7-DIHYDROPYRAZOLO[1,5-a]PYRAZIN-4(5H)-ONE COMPOUNDS AND THEIR USE AS NEGATIVE ALLOSTERIC MODULATORS OF MGLUR2 RECEPTORS” (Janssen Pharmaceutica NV, priority 2014, published 2020).

For one series, the system named is rats. As to the kind of experiment: Reversal of the effect of the mGluR2 PAM JNJ-42153605-induced inhibition of scopolamine-induced hyperlocomotion. The series is classed as in vivo. As to conditions: Rattus norvegicus, criterion total distance >1500 cm, read-out: ED50 SCOP JNJ-42153605. The method, then: 2) Reversal of the Effect of the mGluR2 PAM JNJ-42153605-Induced Inhibition of Scopolamine-Induced Hyperlocomotion
Motor activity was measured in microprocessor-based motor activity arenas (closed gray PVC cylinders with a height of 39 cm and a diameter of 31 cm). Each arena was placed on an infrared LED (8×8 LEDs) lit box (white PVC squared box; 40×40 cm^2; height 12.5 cm. An infrared-sensitive tube camera and a white light source were mounted to the ceiling above the observation chamber to track the animal. The total distance traveled (cm) was recorded and analyzed using the Noldus Ethovision XT Video Tracking System (Version 7.0.418; Noldus, Wageningen, The Netherlands). The intensity of the light within the activity cages (measured in the centre at the level of the floor) ranged between 4 and 8 LUX.
The rats were pretreated with test compound or vehicle at 60 min before the start of the activity recordings and placed into individual cages. The rats were challenged with JNJ-42153605 (3-(cyclopropylmethyl)-7-(4-phenylpiperidin-1-yl)-8-(trifluoromethyl)[1,2,4]triazolo[4,3-a]pyridine; WO2010/130424; Cid et al. J. Med. Chem. 2012, 55, 8770-8789) (20 mg/kg, i.v.) 30 min before the start of the activity recording combined with scopolamine (0.16 mg/kg, i.v.) just before the start of the activity measurements. Immediately after the injection of scopolamine, the rats were placed into the activity monitors and total distance traveled over the first 30 min was measured.
Animals receiving the combination of JNJ-42153605 and scopolamine (n=433) almost always traveled a distance of less than 1500 cm (<1500 cm) (only 2.5% of the control rats traveled a distance of more than 1500 cm (>1500 cm)). On the other hand, animals challenged with scopolamine alone (n=215) always traveled a total distance of more than 1500 cm (>1500 cm) and almost always (in 95.8% of the rats) a distance of more than 4400 cm (>4400 cm). […] For reversal of the inhibitory effect of JNJ-42153605 on the scopolamine-induced hyperlocomotion, the following all-or-none criteria were adopted: (1) reversal: total distance >1500 cm.

Another series has as its target T1, human mGlu2 receptor (Homo sapiens, UniProt Q14416).
T1 construct: expressed in transfected cells; host or cells: CHO cells (membrane preparation)
As to the kind of experiment: [35S]GTPγS binding assay, mGluR2 negative allosteric modulation. The series is classed as biochemical. The following applies: for Emax: maximal % inhibition relative to the control glutamate response, read-out: GTPγS-hmGluR2 anGT Emax; for IC50: membranes from CHO cells transfected with human mGlu2 receptor, glutamate 60 μM (~EC80), read-out: GTPγS-hmGluR2 anGT pIC50 (converted). An excerpt:
Membrane-bound radioactivity was counted in a Topcount.
Background: GTPγS is a poorly hydrolysed GTP analogue; its binding reports G protein activation.

The test system of another series is Wiga Wistar rats. As to the kind of experiment: Reversal of LY-404039-induced decrease of palpebral opening in apomorphine-challenged rats. The series is classed as in vivo. As to conditions: Rattus norvegicus, criterion cumulative palpebral opening score >26, read-out: ED50 APO LY-404039. Here is the method: Male Wiga Wistar rats (Crl:WI; Charles River Germany; 220±40 g) were housed under standard laboratory conditions (21±2° C.; 50-65% relative humidity; light-dark cycle set at 12 h; lights on at 6.00 h) and fasted overnight prior to the start of the experiments (tap water remained available ad libitum). During the test period, they were housed in individual cages. Palpebral opening was scored every 5 min over the first hour after injection of apomorphine (1.0 mg/kg, i.v.) in animals either pretreated or not pretreated with LY-404039 (2.5 mg/kg, s.c.) at 1 h prior to the apomorphine injection. The animals were also pretreated with test compound or solvent at a predefined interval before apomorphine challenge. The score system was: (5) exophthalmos, (4) wide open, (3) open for three-quarters, (2) half open, (1) open for one-quarter, (0) closed. The scores for palpebral opening were cumulated over the 60-min observation period.
In animals receiving apomorphine alone the median palpebral opening is 43 whereas in animals receiving apomorphine and LY-404039, the median palpebral opening is 17.

A further series has as its system Wiga rats. Put plainly: Induction of mydriasis. Type of series: in vivo. As to conditions: Rattus norvegicus, route PO, pupil diameter >25 units 1 h post-administration. The method, then:
The pupil diameter of Wiga rats was measured with a microscopic micrometer (1 unit= 1/24 mm). Criteria for drug-induced effects: pupil diameter >25 units for mydriasis (in controls: 1.9%) 1 h post-administration of the test compound.

Where two headings read alike, the source gives them in different places.

T1 sequence (Q14416 19-872): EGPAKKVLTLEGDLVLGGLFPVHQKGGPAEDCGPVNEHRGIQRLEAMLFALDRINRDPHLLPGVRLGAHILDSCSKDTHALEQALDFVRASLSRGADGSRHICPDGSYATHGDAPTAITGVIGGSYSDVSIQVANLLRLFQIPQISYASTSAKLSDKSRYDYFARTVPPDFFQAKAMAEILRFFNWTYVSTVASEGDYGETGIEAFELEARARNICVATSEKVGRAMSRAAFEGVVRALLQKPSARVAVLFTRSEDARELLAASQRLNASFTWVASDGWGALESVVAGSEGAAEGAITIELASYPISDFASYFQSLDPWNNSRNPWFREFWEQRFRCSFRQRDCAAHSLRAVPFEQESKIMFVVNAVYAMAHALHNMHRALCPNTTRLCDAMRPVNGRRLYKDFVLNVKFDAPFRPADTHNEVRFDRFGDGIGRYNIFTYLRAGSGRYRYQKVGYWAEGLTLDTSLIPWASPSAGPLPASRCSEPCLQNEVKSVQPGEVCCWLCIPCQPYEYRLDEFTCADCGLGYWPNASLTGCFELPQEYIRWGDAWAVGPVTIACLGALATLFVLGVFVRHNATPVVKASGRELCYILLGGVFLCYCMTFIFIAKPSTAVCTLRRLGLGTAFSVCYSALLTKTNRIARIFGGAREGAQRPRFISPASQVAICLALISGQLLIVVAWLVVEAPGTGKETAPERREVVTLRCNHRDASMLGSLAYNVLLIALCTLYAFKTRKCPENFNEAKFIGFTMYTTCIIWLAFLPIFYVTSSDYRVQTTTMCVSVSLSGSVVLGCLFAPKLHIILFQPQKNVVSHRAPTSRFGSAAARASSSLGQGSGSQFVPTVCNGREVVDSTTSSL

The term ED50 denotes the dose that gives a 50% effect, or the effect in half of the subjects. What is called melting point is the temperature, or range, at which the solid turns liquid. For orientation: Emax means the greatest response seen or fitted, relative to the assay's reference. For the molecule `C[C@H]1CN(c2ccc(C(F)(F)F)c(Cl)c2)C(=O)c2c(-c3cc(-c4cnccn4)no3)cnn21` [compound 16], the melting point was found to be 168.47 °C. In addition, the ED50 with rats (route PO) is more than 0.63 mg/kg. On human mGlu2 receptor, the Emax is 105% and the IC50 is 3.8 nM.

`C[C@H]1CN(c2ccc(C(F)(F)F)c(Cl)c2)C(=O)c2c(-c3cc(-c4cccnc4)no3)cnn21` [Co. No. 4, (7S)-5-[3-Chloro-4-(trifluoromethyl)phenyl]-7-methyl-3-[3-(3-pyridyl)isoxazol-5-yl]-6,7-dihydropyrazolo[1,5-a]pyrazin-4-one] came in with a melting point of 115.67 °C. In addition, the ED50 in the series on rats (route PO) was 0.51 mg/kg. In addition, on human mGlu2 receptor, the Emax came to 105% and the IC50 was 2.34 nM.

For the molecule `Cc1cc(N2C[C@H](C)n3ncc(-c4cc(-c5cncc(F)c5)no4)c3C2=O)ccc1C(F)(F)F` [compound 19], the melting point was 171.64 °C. In addition, on human mGlu2 receptor, the Emax is 104% and the IC50 is 12.9 nM.

`Cc1cc(N2C[C@H](C)n3ncc(-c4cc(-c5cnccn5)no4)c3C2=O)ccc1C(F)(F)F` [compound 21] had a melting point of 150.37 °C. Moreover, the ED50 in the series with rats (route PO) is more than 0.63 mg/kg. Further, at human mGlu2 receptor, the Emax was 109% and the IC50 is 7.08 nM.

Regarding `C[C@H]1CN(c2ccc(C(F)(F)F)cc2)C(=O)c2c(-c3cc(-c4ccccc4)no3)cnn21` [compound 6], the melting point stood at 220.55 °C. Besides, at human mGlu2 receptor, the Emax came to 103% and the IC50 was 12.3 nM.

Take `Cc1cc(N2C[C@H](C)n3ncc(-c4cc(-c5cccnc5)no4)c3C2=O)ccc1C(F)(F)F` [compound 18]: the melting point stood at 143.97 °C. Further, the ED50 in the series on rats (route PO) was more than 0.63 mg/kg. At human mGlu2 receptor, the Emax is 109% and the IC50 was 3.24 nM.

Regarding `C[C@H]1CN(c2ccc(C(F)(F)F)cc2)C(=O)c2c(-c3cc(-c4ccccn4)no3)cnn21` [compound 7], the melting point is 227.97 °C. In addition, at human mGlu2 receptor, the Emax came to 107% and the IC50 was 11.7 nM.

`C[C@H]1CN(c2ccc(C(F)(F)F)c(Cl)c2)C(=O)c2c(-c3cc(-c4cncc(F)c4)no3)cnn21` [compound 14] came in with a melting point of 181.56 °C. Moreover, at human mGlu2 receptor, the Emax was determined as 105% and the IC50 was 5.89 nM.

Regarding `C[C@H]1CN(c2ccc(C(F)(F)F)c(Cl)c2)C(=O)c2c(-c3cc(-c4ccccn4)no3)cnn21` [compound 13], the melting point is 159.08 °C. In the series on rats (route PO), the median effective dose (ED50) was more than 0.63 mg/kg. Moreover, on human mGlu2 receptor, the Emax was found to be 107% and the IC50 is 7.24 nM.

In the case of `Cc1cc(-c2cnn3c2C(=O)N(c2ccc(C(F)(F)F)c(Cl)c2)C[C@@H]3C)on1` [compound 12], the melting point worked out at 126.2 °C. The ED50 with rats (route PO) turned out to be 1.99 mg/kg. Also, on human mGlu2 receptor, the Emax is 103% and the IC50 is 2.75 nM.

On to `Cc1cc(N2C[C@H](C)n3ncc(-c4cc(-c5ccccn5)no4)c3C2=O)ccc1C(F)(F)F` [compound 17], for which the melting point is 171.97 °C. The ED50 in the series on rats (route PO) is more than 0.63 mg/kg. Also, at human mGlu2 receptor, the Emax worked out at 107% and the IC50 is 10.2 nM.

In turn, `C[C@H]1CN(c2ccc(C(F)(F)F)cc2)C(=O)c2c(-c3cc(-c4ccc(N)nc4)no3)cnn21` [Co. No. 2, (7S)-3-[3-(6-Amino-3-pyridyl)isoxazol-5-yl]-7-methyl-5-[4-(trifluoromethyl)phenyl]-6,7-dihydropyrazolo[1,5-a]pyrazin-4-one] gave a melting point of 263.6 °C. Moreover, the ED50 in the series with rats (route PO) came out at 0.28 mg/kg. Moreover, the ED50 in the series on rats (route SC) was determined as 0.3 mg/kg. Besides, the ED50 in the series on Wiga Wistar rats (route PO) was found to be 0.32 mg/kg. The ED50 in the series on Wiga Wistar rats (route SC) was determined as 0.2 mg/kg. In addition, on human mGlu2 receptor, the Emax is 112% and the IC50 was 1.95 nM. This molecule returned an ED50 in the series with Wiga rats of 7.94 mg/kg.

With `Cc1ccncc1-c1cc(-c2cnn3c2C(=O)N(c2ccc(C(F)(F)F)c(Cl)c2)C[C@@H]3C)on1` [compound 15], the melting point was 149.26 °C. The ED50 with rats (route PO) was more than 0.63 mg/kg. Moreover, at human mGlu2 receptor, the Emax was determined as 110% and the IC50 was 1.2 nM.

Regarding `Cc1ccncc1-c1cc(-c2cnn3c2C(=O)N(c2ccc(C(F)(F)F)cc2)C[C@@H]3C)on1` [compound 10], the melting point is 211.19 °C. In addition, the ED50 in the series on rats (route PO) is more than 0.63 mg/kg. Also, at human mGlu2 receptor, the Emax worked out at 108% and the IC50 was 2.88 nM.

As to `C[C@H]1CN(c2ccc(C(F)(F)F)cc2)C(=O)c2c(-c3cc(-c4cncc(F)c4)no3)cnn21` [compound 9], the melting point stood at 180.17 °C. Also, at human mGlu2 receptor, the Emax turned out to be 108% and the IC50 was 11 nM.

On to `C[C@H]1CN(c2ccc(C(F)(F)F)c(Cl)c2)C(=O)c2c(-c3cc(-c4ccc(N)nc4)no3)cnn21` [Co. No. 3, (7S)-3-[3-(6-Amino-3-pyridyl)isoxazol-5-yl]-5-[3-chloro-4-(trifluoromethyl)phenyl]-7-methyl-6,7-dihydropyrazolo[1,5-a]pyrazin-4-one], for which the ED50 with rats (route PO) amounted to 0.5 mg/kg. On human mGlu2 receptor, the Emax stood at 105% and the IC50 is 1.58 nM.

For `C[C@H]1CN(c2ccc(C(F)(F)F)cc2)C(=O)c2c(-c3cc(N)no3)cnn21` [Co. No. 1, (7S)-3-(3-Aminoisoxazol-5-yl)-7-methyl-5-[4-(trifluoromethyl)phenyl]-6,7-dihydropyrazolo[1,5-a]pyrazin-4-one], at human mGlu2 receptor, the Emax turned out to be 100% and the IC50 was 490 nM.

For `Cc1cc(-c2cnn3c2C(=O)N(c2ccc(C(F)(F)F)cc2)C[C@@H]3C)on1` [compound 5], the melting point was 161 °C. In addition, in the series with rats (route PO), the ED50 is more than 2.5 mg/kg. In addition, at human mGlu2 receptor, the Emax amounted to 102% and the IC50 is 16.6 nM.

Turning to `Cc1ccncc1-c1cc(-c2cnn3c2C(=O)N(c2ccc(C(F)(F)F)c(C)c2)C[C@@H]3C)on1` [compound 20], the melting point stood at 172.39 °C. Further, in the series with rats (route PO), the ED50 was more than 0.63 mg/kg. Moreover, at human mGlu2 receptor, the Emax was found to be 109% and the IC50 was 2.14 nM.

Regarding `C[C@H]1CN(c2ccc(C(F)(F)F)cc2)C(=O)c2c(-c3cc(-c4cnccn4)no3)cnn21` [compound 11], the melting point was 202.51 °C. Besides, on human mGlu2 receptor, the Emax stood at 105% and the IC50 is 20 nM.

With `C[C@H]1CN(c2ccc(C(F)(F)F)cc2)C(=O)c2c(-c3cc(-c4cccnc4)no3)cnn21` [compound 8], the melting point was 186.15 °C. Moreover, at human mGlu2 receptor, the Emax was 105% and the IC50 is 12.9 nM.
